Laboratory results taken from ChEMBL document CHEMBL1201862, “PubChem BioAssay data set” (2004).
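How tested: cells in 96-well plates exposed to compound for 48 hours at five concentrations. GI50 = concentration required for 50% inhibition of growth.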 Activity calls are given as the source filed them. No stated cut-off is given here; in the data, active = GI50 up to about 1.1 µM and inactive = higher.

Columns and labels:
Test in all cases: NCI-60 cell line screen, 48 h
NCI-H522 = tested on: NCI-H522
HOP-92 = tested on: HOP-92
OVCAR-5 = tested on: OVCAR-5
UACC-257 = tested on: UACC-257
OVCAR-8 = tested on: OVCAR-8
RXF 393 = tested on: RXF 393
EKVX = tested on: EKVX
SF-268 = tested on: SF-268
HT-29 = tested on: HT-29
KM12 = tested on: KM12
NCI-H226 = tested on: NCI-H226
HCT-15 = tested on: HCT-15
A549 = tested on: A549
MOLT-4 = tested on: MOLT-4
SK-MEL-28 = tested on: SK-MEL-28
786-0 = tested on: 786-0
OVCAR-4 = tested on: OVCAR-4
BT-549 = tested on: BT-549
Malme-3M = tested on: Malme-3M
MDA-N = tested on: MDA-N

Row | SMILES | GI50 (NCI-H522) | GI50 (HOP-92) | GI50 (OVCAR-5) | GI50 (UACC-257) | GI50 (OVCAR-8) | GI50 (RXF 393) | GI50 (EKVX) | GI50 (SF-268) | GI50 (HT-29) | GI50 (KM12) | GI50 (NCI-H226) | GI50 (HCT-15) [µM] | GI50 (A549) | GI50 (MOLT-4) | GI50 (SK-MEL-28) | GI50 (786-0) | GI50 (OVCAR-4) | GI50 (BT-549) | GI50 (Malme-3M) | GI50 (MDA-N)
1 | Oc1ccc(C[C@@H]2CN[C@H](Cc3ccc(O)c(Br)c3)CN2)cc1 | > 100 µM (inactive) | > 100 µM (inactive) | > 100 µM (inactive) | > 100 µM (inactive) | > 100 µM (inactive) | 84.3 µM (inactive) | > 100 µM (inactive) | > 100 µM (inactive) | > 100 µM (inactive) | > 100 µM (inactive) | > 100 µM (inactive) | > 100 | > 100 µM (inactive) | > 100 µM (inactive) | > 100 µM (inactive) | > 100 µM (inactive) | > 100 µM (inactive) | > 100 µM (inactive) |  | 
2 | N#C/C(=C/c1ccsc1)C(=O)c1ccccc1 | > 100 µM (inactive) | > 100 µM (inactive) | > 100 µM (inactive) | > 100 µM (inactive) | > 100 µM (inactive) | > 100 µM (inactive) | > 100 µM (inactive) | > 100 µM (inactive) | > 100 µM (inactive) | > 100 µM (inactive) | > 100 µM (inactive) | > 100 | > 100 µM (inactive) | > 100 µM (inactive) | > 100 µM (inactive) | > 100 µM (inactive) | > 100 µM (inactive) |  | > 100 µM (inactive) | 
3 | COC(=O)C1=Cc2cn(S(=O)(=O)c3ccc(C)cc3)c3cccc(c23)C(C=C(C)C)N1C(C)=O (configuration not stated) | 5.83 µM (inactive) | 12.7 µM (inactive) | > 100 µM (inactive) | 11.3 µM (inactive) | 84.9 µM (inactive) | 13.8 µM (inactive) | > 100 µM (inactive) | 93.5 µM (inactive) | 27.9 µM (inactive) | > 100 µM (inactive) | > 100 µM (inactive) |  | 13.6 µM (inactive) | 3.1 µM (inactive) | > 10 µM (inactive) | > 100 µM (inactive) | 8.67 µM (inactive) |  | 16.8 µM (inactive) | 
4 | O=C(O)c1cc2c3ccccc3nc-2c[nH]1 | > 100 µM (inactive) | > 100 µM (inactive) | > 100 µM (inactive) | > 100 µM (inactive) | > 100 µM (inactive) | > 100 µM (inactive) | > 100 µM (inactive) | > 100 µM (inactive) | > 100 µM (inactive) | > 100 µM (inactive) | > 100 µM (inactive) | > 100 | > 100 µM (inactive) | > 100 µM (inactive) | > 100 µM (inactive) | > 100 µM (inactive) | > 100 µM (inactive) |  | > 100 µM (inactive) | 
5 | O=C(N/C(=C/c1cccc([N+](=O)[O-])c1)c1nc2cc(Cl)ccc2[nH]1)c1ccccc1 | 4.07 µM (inactive) | 19.1 µM (inactive) | 27.8 µM (inactive) | 43.8 µM (inactive) | 7.5 µM (inactive) | 12.4 µM (inactive) | 3.14 µM (inactive) | 11.7 µM (inactive) | 8.95 µM (inactive) | 5.41 µM (inactive) | 24.4 µM (inactive) | 6.01 | 14.2 µM (inactive) | 3.83 µM (inactive) | 22.6 µM (inactive) | 15.7 µM (inactive) | 17.4 µM (inactive) |  | 12.8 µM (inactive) | 
6 | CC1(CCC(=O)OC2CCCCC2)OCCO1 | > 100 µM (inactive) | > 100 µM (inactive) | > 100 µM (inactive) | > 100 µM (inactive) | > 100 µM (inactive) | > 100 µM (inactive) | > 100 µM (inactive) | > 100 µM (inactive) | > 100 µM (inactive) | > 100 µM (inactive) | > 100 µM (inactive) | > 100 | > 100 µM (inactive) | > 100 µM (inactive) | > 100 µM (inactive) | > 100 µM (inactive) | > 100 µM (inactive) |  | > 100 µM (inactive) | > 100 µM (inactive)
7 | COC(=O)CCC(=O)CC(=O)C(=O)Nc1ccc(F)cc1 | > 100 µM (inactive) | > 100 µM (inactive) | > 100 µM (inactive) | > 100 µM (inactive) | > 100 µM (inactive) | 54 µM (inactive) | > 100 µM (inactive) | > 100 µM (inactive) | > 100 µM (inactive) | > 100 µM (inactive) | > 100 µM (inactive) | > 100 | > 100 µM (inactive) | > 100 µM (inactive) | > 100 µM (inactive) | > 100 µM (inactive) | > 100 µM (inactive) |  | > 100 µM (inactive) | 
8 | Cc1cc2c(cc1C)[n+]([O-])c(C(=O)CC(=O)C(=O)Nc1ccccc1C)c(C)[n+]2[O-] | 54 µM (inactive) | > 100 µM (inactive) | > 100 µM (inactive) | > 100 µM (inactive) | > 100 µM (inactive) | > 100 µM (inactive) | 33.8 µM (inactive) | > 100 µM (inactive) | > 100 µM (inactive) | > 100 µM (inactive) | > 100 µM (inactive) | > 100 | 56.2 µM (inactive) | > 100 µM (inactive) | > 100 µM (inactive) | > 100 µM (inactive) | > 100 µM (inactive) |  | > 100 µM (inactive) | 
9 | C[C@]12CCC3[C@@H](CC[C@@H]4c5nonc5CC[C@]34C)C1CCC2=O (some centres not stated) | 16.2 µM (inactive) | 20.8 µM (inactive) | 29.3 µM (inactive) | 18 µM (inactive) | 31.7 µM (inactive) | 26.2 µM (inactive) | 19.9 µM (inactive) | 33.6 µM (inactive) | 16.5 µM (inactive) | 20.7 µM (inactive) | 20 µM (inactive) | 29.8 | 27.8 µM (inactive) | 23.2 µM (inactive) | 24.7 µM (inactive) | 23.8 µM (inactive) | 23.8 µM (inactive) |  | 23.3 µM (inactive) | 
10 | O=C(O)CN(c1ccc(F)cc1)S(=O)(=O)c1ccccc1 | > 100 µM (inactive) | > 100 µM (inactive) | > 100 µM (inactive) | > 100 µM (inactive) | > 100 µM (inactive) | > 100 µM (inactive) | > 100 µM (inactive) | > 100 µM (inactive) | > 100 µM (inactive) | > 100 µM (inactive) | > 100 µM (inactive) | > 100 | > 100 µM (inactive) | > 100 µM (inactive) | > 100 µM (inactive) | > 100 µM (inactive) | > 100 µM (inactive) |  | > 100 µM (inactive) | 
11 | Nc1nc2c(ncn2CC2CCC(CO)C2)c(=O)[nH]1 (configuration not stated) |  | > 100 µM (inactive) | > 100 µM (inactive) | > 100 µM (inactive) |  | > 100 µM (inactive) | > 100 µM (inactive) | > 100 µM (inactive) |  | > 100 µM (inactive) | > 100 µM (inactive) | > 100 | > 100 µM (inactive) |  | > 100 µM (inactive) | > 100 µM (inactive) | > 100 µM (inactive) |  |  | > 100 µM (inactive)
12 | CC1=C(C)CC(C#N)(C#N)C(C#N)(C#N)C1 | 1 µM (active) | > 3.28 µM (inactive) | > 10 µM (inactive) | > 10 µM (inactive) | > 5.45 µM (inactive) | > 4.39 µM (inactive) | > 10 µM (inactive) | > 10 µM (inactive) | > 5.78 µM (inactive) | > 10 µM (inactive) | > 10 µM (inactive) | > 10 | > 10 µM (inactive) | 2.51 µM (inactive) | > 10 µM (inactive) | > 4.94 µM (inactive) | > 8.04 µM (inactive) |  | > 6.4 µM (inactive) | > 4.78 µM (inactive)
13 | COC(=O)c1cc2c(cc1O)[C@@H](NC(C)=O)CCc1cc(OC)c(OC)c(OC)c1-2 | 0.0222 µM (active) | 0.0647 µM (active) | > 10 µM (inactive) | 0.0715 µM (active) | 0.0577 µM (active) |  | 0.0415 µM (active) | 0.0792 µM (active) | 0.044 µM (active) | 0.0283 µM (active) | 0.023 µM (active) | 0.0461 | 0.0605 µM (active) | 0.0796 µM (active) | 0.0731 µM (active) | 0.0328 µM (active) | 0.0432 µM (active) |  | 0.0243 µM (active) | 0.0277 µM (active)
14 | C[C@H](CO)C1=CC(C#C[Si](C)(C)C)N(C(=O)Oc2ccccc2)c2ccccc21 (some centres not stated) | 3.94 µM (inactive) | 12.9 µM (inactive) | 15 µM (inactive) | 13.6 µM (inactive) | 17.7 µM (inactive) | 10.2 µM (inactive) | 13.3 µM (inactive) | 13.3 µM (inactive) | 4.92 µM (inactive) | 4.93 µM (inactive) | 15.7 µM (inactive) | 3.06 | 11.6 µM (inactive) | 9.12 µM (inactive) | 16.6 µM (inactive) | 14.2 µM (inactive) | 7.1 µM (inactive) |  |  | 3.58 µM (inactive)
15 | C=C1CC2CC[C@@]34C[C@@H]5O[C@@H]6C(O[C@H]7CC[C@H](CC(=O)OC8[C@@H](C)C9OC%10C[C@]%11(C[C@@H]%12O[C@@]%13(C[C@@H](C)[C@@H]%12O%11)C[C@H](C)[C@@H]%11OC%12CC(C(O)CO)OC%12C[C@@H]%11O%13)OC%10CC9O[C@H]8C[C@H]8O[C@@H](CC[C@@H]1O2)C[C@@H](C)C8=C)O[C@@H]7[C@@H]6O3)C5O4 (some centres not stated) | 0.000213 µM (active) | 0.00236 µM (active) | 0.00904 µM (active) | 0.000262 µM (active) | 0.00249 µM (active) | 0.000685 µM (active) | 0.00405 µM (active) | 0.00229 µM (active) | 0.000357 µM (active) | 0.000494 µM (active) | 0.00179 µM (active) | 0.000476 | 0.00168 µM (active) | 0.00135 µM (active) | 0.0014 µM (active) | 0.00211 µM (active) | 0.00471 µM (active) |  | 0.000904 µM (active) | 
